# Test results as given in patent US8372967B2, “Compounds and methods for modulating expression of GCCR” (Isis Pharmaceuticals, Inc., priority 2006, dated 2013).
# Strand notation (5' to 3'): a small letter for the sugar, then the base; units joined by * are phosphorothioate-linked, units joined directly phosphodiester-linked; [ ] holds rarer units or linkages, { } end groups; capitals alone tell only the bases. e = 2'-O-(2-methoxyethyl) (MOE); [5mC] = 5-methylcytosine; d = 2'-deoxy (DNA)
# Key:
# Type in all cases: in vivo, mouse
# [1] = Organ weights: liver, WAT, spleen, kidney, GCGR study (Table 33); settings: 48 h
# Description: (§1) Eight-week old male C57/BL6 mice (Jackson Laboratory, Bar Harbor, Me.) were administered a single dose of GCGR oligonucleotide by intraperitoneal injection at a concentration of […]. Each dose group consisted of four animals. Shown in Table 31 are the sequences, motifs and conjugates of the GCGR antisense compounds used in this study. Bolded residues indicate 2′-O-methoxyethyl (2′-MOE) moieties. All compounds comprise phosphorothioate internucleoside linkages throughout and each cytosine is replaced with 5-methylcytosine. ISIS 386626, ISIS 386627 and ISIS 386628 further comprise a C16 conjugate group attached to the 2′-O position of the sugar via a diamide linkage (2′-OCH2C(═O)N(H)(CH2)4N(H)C(═O)—(CH2)15CH3). GCGR antisense compounds target published GCGR sequences, including Genbank® Accession No. BC031885.1 (SEQ ID NO: 7).
# (§2) Mice were sacrificed 48 hours following injection to determine serum transaminase levels (Table 32); liver, white adipose tissue (WAT), spleen and kidney weight (Table 33); cholesterol, triglyceride and glucose levels (Table 34); GCGR mRNA levels (Tables 35-41); and full-length and total oligonucleotide concentration in liver and kidney (Table 42). Endpoints were assessed using methods described herein and well known to those of ordinary skill in the art. Data is included from a pre-treatment bleed (Pre-Bleed) and post-treatment bleed (Post-Bleed).
# GCGR mRNA = GCGR mRNA levels in liver, C57/BL6 mice, single i.p. dose (Tables 35-41)
# Description: Prior to quantitative PCR analysis, primer-probe sets specific to the target gene being measured were evaluated for their ability to be “multiplexed” with a GAPDH amplification reaction. After isolation the RNA is subjected to sequential reverse transcriptase (RT) reaction and real-time PCR, both of which are performed in the same well. RT and PCR reagents were obtained from Invitrogen Life Technologies (Carlsbad, Calif.). […] The RT reaction was carried out by incubation for 30 minutes at 48° C. Following a 10 minute incubation at 95° C. to activate the PLATIN 9M® Taq, 40 cycles of a two-step PCR protocol were carried out: 95° C. for 15 seconds (denaturation) followed by 60° C. for 1.5 minutes (annealing/extension).
# 170 μL of RiboGreen® working reagent (RiboGreen® reagent diluted 1:350 in 10 mM Tris-HCl, 1 mM EDTA, pH 7.5) was pipetted into a 96-well plate containing 30 μL purified cellular RNA. The plate was read in a CytoFluor® 4000 (PE Applied Biosystems) with excitation at 485 nm and emission at 530 nm.
# as §1, §2
# To determine whether the phenotypic changes shown above correlated with a decrease in GCGR mRNA, treated animals were evaluated for levels of target mRNA in liver by real time PCR according to methods described herein. Tables 35 to 41 show results from direct comparisons of the antisense compounds targeting GCGR nucleic acid for their effect on target expression. Results are expressed as percent of saline control.
# [2] = ALT & AST levels and toxic effects, GCGR study (Table 32); settings: C57/BL6 mice, pre-treatment bleed
# Description: as §1, §2
# [3] = Triglyceride, cholesterol and glucose levels, pre-bleed and post-bleed, GCGR study (Table 34); set-up: Triglyceride (TRIG) Pre-Bleed / Triglyceride (TRIG) Post-Bleed / Cholesterol (CHOL) Pre-Bleed / Cholesterol (CHOL) Post-Bleed / Glucose Pre-Bleed / Glucose Post-Bleed: unit not given here; settings: for Cholesterol (CHOL) Pre-Bleed / Triglyceride (TRIG) Pre-Bleed: pre-treatment bleed; for Cholesterol (CHOL) Post-Bleed / Triglyceride (TRIG) Post-Bleed: post-treatment bleed
# [4] = Total and full-length antisense compound concentrations in liver and kidney, GCGR study (Table 42); settings: 48 h after single i.p. dose
# Description: as §1, §2
# Treatment with the 2-10-2 MOE gapmers led to a significant dose-dependent decrease in GCGR mRNA expression. […] To determine whether the observed increase in efficiency with the short antisense compounds is due to an increase in antisense compound accumulation, full-length and total antisense compound concentration in the liver and kidney were determined.
substance,measurement,setting,value
148364 (antisense eT*eG*e[5mC]*eA*e[5mC]*dT*dT*dT*dG*dT*dG*dG*dT*dA*d[5mC]*e[5mC]*eA*eA*eG*eG) [compound 148364],Organ Weights: Kidney,[1]; 6.25 mg/kg single i.p.,104 % saline control
same,Organ Weights: Liver,[1]; 6.25 mg/kg single i.p.,101 % saline control
same,Organ Weights: Spleen,[1]; 6.25 mg/kg single i.p.,113 % saline control
same,Organ Weights: WAT,[1]; 6.25 mg/kg single i.p.,89 % saline control
same,Organ Weights: Kidney,[1]; 12.5 mg/kg single i.p.,108 % saline control
same,Organ Weights: Liver,[1]; 12.5 mg/kg single i.p.,100 % saline control
same,Organ Weights: Spleen,[1]; 12.5 mg/kg single i.p.,96 % saline control
same,Organ Weights: WAT,[1]; 12.5 mg/kg single i.p.,84 % saline control
same,Organ Weights: Kidney,[1]; 25 mg/kg single i.p.,112 % saline control
same,Organ Weights: Liver,[1]; 25 mg/kg single i.p.,103 % saline control
same,Organ Weights: Spleen,[1]; 25 mg/kg single i.p.,115 % saline control
same,Organ Weights: WAT,[1]; 25 mg/kg single i.p.,75 % saline control
same,Organ Weights: Kidney,[1]; 50 mg/kg single i.p.,108 % saline control
same,Organ Weights: Liver,[1]; 50 mg/kg single i.p.,103 % saline control
same,Organ Weights: Spleen,[1]; 50 mg/kg single i.p.,123 % saline control
same,Organ Weights: WAT,[1]; 50 mg/kg single i.p.,80 % saline control
same,GCGR mRNA levels,"GCGR mRNA; 6.25 mg/kg, Table 35 comparison ISIS 148364 & ISIS 386626",62% of saline control
same,GCGR mRNA levels,"GCGR mRNA; 6.25 mg/kg, Table 36 comparison ISIS 148364 & ISIS 386627",86% of saline control
same,GCGR mRNA levels,"GCGR mRNA; 6.25 mg/kg, Table 37 comparison ISIS 148364 & ISIS 386593",86% of saline control
same,GCGR mRNA levels,"GCGR mRNA; 6.25 mg/kg, Table 38 comparison ISIS 148364 & ISIS 386628",101% of saline control
same,GCGR mRNA levels,"GCGR mRNA; 6.25 mg/kg, Table 39 comparison ISIS 148364 & ISIS 386594",96% of saline control
same,GCGR mRNA levels,"GCGR mRNA; 12.5 mg/kg, Table 35 comparison ISIS 148364 & ISIS 386626",87% of saline control
same,GCGR mRNA levels,"GCGR mRNA; 12.5 mg/kg, Table 36 comparison ISIS 148364 & ISIS 386627",105% of saline control
same,GCGR mRNA levels,"GCGR mRNA; 12.5 mg/kg, Table 37 comparison ISIS 148364 & ISIS 386593",105% of saline control
same,GCGR mRNA levels,"GCGR mRNA; 12.5 mg/kg, Table 38 comparison ISIS 148364 & ISIS 386628",98% of saline control
same,GCGR mRNA levels,"GCGR mRNA; 12.5 mg/kg, Table 39 comparison ISIS 148364 & ISIS 386594",102% of saline control
same,GCGR mRNA levels,"GCGR mRNA; 25 mg/kg, Table 35 comparison ISIS 148364 & ISIS 386626",79% of saline control
same,GCGR mRNA levels,"GCGR mRNA; 25 mg/kg, Table 36 comparison ISIS 148364 & ISIS 386627",87% of saline control
same,GCGR mRNA levels,"GCGR mRNA; 25 mg/kg, Table 37 comparison ISIS 148364 & ISIS 386593",74% of saline control
same,GCGR mRNA levels,"GCGR mRNA; 25 mg/kg, Table 38 comparison ISIS 148364 & ISIS 386628",77% of saline control
same,GCGR mRNA levels,"GCGR mRNA; 25 mg/kg, Table 39 comparison ISIS 148364 & ISIS 386594",98% of saline control
same,GCGR mRNA levels,"GCGR mRNA; 50 mg/kg, Table 35 comparison ISIS 148364 & ISIS 386626",36% of saline control
same,GCGR mRNA levels,"GCGR mRNA; 50 mg/kg, Table 36 comparison ISIS 148364 & ISIS 386627",63% of saline control
same,GCGR mRNA levels,"GCGR mRNA; 50 mg/kg, Table 37 comparison ISIS 148364 & ISIS 386593",56% of saline control
same,GCGR mRNA levels,"GCGR mRNA; 50 mg/kg, Table 38 comparison ISIS 148364 & ISIS 386628",42% of saline control
same,GCGR mRNA levels,"GCGR mRNA; 50 mg/kg, Table 39 comparison ISIS 148364 & ISIS 386594",59% of saline control
same,ALT Pre-Bleed,[2]; dose group 6.25 mg/kg,28 IU/L
same,AST Pre-Bleed,[2]; dose group 6.25 mg/kg,47 IU/L
same,ALT Pre-Bleed,[2]; dose group 12.5 mg/kg,23 IU/L
same,AST Pre-Bleed,[2]; dose group 12.5 mg/kg,44 IU/L
same,ALT Pre-Bleed,[2]; dose group 25 mg/kg,26 IU/L
same,AST Pre-Bleed,[2]; dose group 25 mg/kg,42 IU/L
same,ALT Pre-Bleed,[2]; dose group 50 mg/kg,24 IU/L
same,AST Pre-Bleed,[2]; dose group 50 mg/kg,40 IU/L
same,Cholesterol (CHOL) Pre-Bleed,[3]; 6.25 mg/kg group,86
same,Triglyceride (TRIG) Pre-Bleed,[3]; 6.25 mg/kg group,86
same,Cholesterol (CHOL) Post-Bleed,[3]; 6.25 mg/kg single i.p.,89
same,Triglyceride (TRIG) Post-Bleed,[3]; 6.25 mg/kg single i.p.,162
same,Cholesterol (CHOL) Pre-Bleed,[3]; 12.5 mg/kg group,85
same,Triglyceride (TRIG) Pre-Bleed,[3]; 12.5 mg/kg group,106
same,Cholesterol (CHOL) Post-Bleed,[3]; 12.5 mg/kg single i.p.,89
same,Triglyceride (TRIG) Post-Bleed,[3]; 12.5 mg/kg single i.p.,179
same,Cholesterol (CHOL) Pre-Bleed,[3]; 25 mg/kg group,83
same,Triglyceride (TRIG) Pre-Bleed,[3]; 25 mg/kg group,115
same,Cholesterol (CHOL) Post-Bleed,[3]; 25 mg/kg single i.p.,96
same,Triglyceride (TRIG) Post-Bleed,[3]; 25 mg/kg single i.p.,200
same,Cholesterol (CHOL) Pre-Bleed,[3]; 50 mg/kg group,81
same,Triglyceride (TRIG) Pre-Bleed,[3]; 50 mg/kg group,110
same,Cholesterol (CHOL) Post-Bleed,[3]; 50 mg/kg single i.p.,94
same,Triglyceride (TRIG) Post-Bleed,[3]; 50 mg/kg single i.p.,177
same,Full-length Antisense Compound Concentration Kidney,[4]; kidney,58 µg/g
same,Total Antisense Compound Concentration Kidney,[4]; kidney,90 µg/g
same,Full-length Antisense Compound Concentration Liver,[4]; liver,46 µg/g
same,Total Antisense Compound Concentration Liver,[4]; liver,54 µg/g
